Values quoted from earlier work as cited in publication PMC6376154 (International Journal for Parasitology: Drugs and Drug …, 2019).
Where two headings read alike, the source gives them in different places.

Test system: P. falciparum 3D7 asexual blood stage
Conditions: cited from earlier work
[1] = ChEMBL-NTD value per source (GNF, GSK, StJude), several values in a cell follow the order of the sources, read-out: CHEMBL EC50
[2] = MMV Malaria Box data sheet, ref MMV data sheets
[3] = MMV Malaria Box data sheet, ref MMV data sheets, read-out: EC50_nM
[4] = source GNF, ref ChEMBL_NTD, read-out: CHEMBL EC50
[5] = source GSK, ref ChEMBL_NTD, read-out: CHEMBL EC50
[6] = MMV Malaria Box data sheet (supplement mmc2.xls), ref MMV data sheet
[7] = value(s) per source (GSK, GNF, StJude), separated by semicolon, ref ChEMBL-NTD, read-out: CHEMBL EC50
[8] = MMV Malaria Box data sheet (supplement mmc2.xls), ref MMV data sheet, read-out: EC50_nM
[9] = MMV Malaria Box sheet, ref MMV data sheets
[10] = MMV Malaria Box sheet, ref MMV data sheets, read-out: EC50_nM

## CCCn1c(=N)c(C(=O)NC2CCCCC2)cc2c(=O)n3cccc(C)c3nc21 [MMV008829]
[1]
  EC50: 460 nM

## CCOc1cc2c(cc1OCC)C(c1cc(OC)c(O)cc1Cl)NCC2 (stereo not drawn) [MMV008956]
[2]
  percent_inh @ 5 uM: 98%
[3]
  EC50: 370 nM
[4]
  EC50: 362 nM
[5]
  EC50: 748 nM

## O=C(CCc1ccccc1)c1ccccc1OCC(O)CN1CCCCC1 (stereo not drawn) [MMV009015]
[1]
  EC50: 881 nM

## CCN(CC)c1ccc(NC(=O)c2cccs2)cc1 [MMV009060]
[6]
  percent_inh @ 5 uM: 88%
[7]
  EC50: 414 nM

## OC(CNC1CCCCC1)Cn1c2ccccc2c2ccccc21 (stereo not drawn) [MMV009063]
[2]
  percent_inh @ 5 uM: 93%
[3]
  EC50: 293 nM
[4]
  EC50: 483 nM
[5]
  EC50: 991 nM

## O=C1c2ccc3c4c(ccc(c24)C(=O)N1CCCCO)C(=O)N(CCCCO)C3=O [MMV009085]
[1]
  EC50: 354 nM

## CCN(CC)S(=O)(=O)c1ccc(-c2csc(Nc3ccc(C)c(C)c3)n2)cc1 [MMV009108]
[6]
  percent_inh @ 5 uM: 97%
[8]
  EC50: 641 nM
[7]
  EC50: 2100 nM

## CC1CCN(Cc2c(O)ccc3cc(-c4nc5ccccc5s4)c(=O)oc23)CC1 [MMV009127]
[9]
  percent_inh @ 5 uM: 91%
[10]
  EC50: 1130 nM
[4]
  EC50: 12500 nM

## Cc1cc(Nc2ccc3ccccc3c2)n2ncnc2n1 [MMV011099]
[3]
  EC50: 242 nM
[5]
  EC50: 173 nM

## Cc1cc(Nc2ccc(Cl)cc2)n2nc(C(F)(F)F)nc2n1 [MMV011256]
[3]
  EC50: 212 nM
[5]
  EC50: 117 nM

## Cc1cc(C)cc(Nc2cc(C)nc3nc(C(F)(F)F)nn23)c1 [MMV011259]
[3]
  EC50: 85.7 nM

## CC(C)(C)c1ccc(C2CC3=Nc4ccccc4N(C(=O)c4ccccc4Cl)C(c4ccc(F)cc4)C3=C(O)C2)cc1 (stereo not drawn) [MMV011436]
[1]
  EC50: 2630 nM

## COC(=O)c1ccc(C2C3=C(O)CC(c4ccc(F)cc4)CC3=Nc3ccccc3N2C(=O)c2ccccc2)cc1 (stereo not drawn) [MMV011438]
[1]
  EC50: 332 nM

## COc1ccc(C(=O)Nc2nonc2-c2ccc(OC)c(OC)c2)cc1Cl [MMV011567]
[2]
  percent_inh @ 5 uM: 92%
[3]
  EC50: 516 nM
[4]
  EC50: 1780 nM
[5]
  EC50: 675 nM

## CCOC(=O)C1CCN(C(=O)CN2C(=O)c3ccccc3C2c2c[nH]c3ccccc23)CC1 (stereo not drawn) [MMV011576]
[9]
  percent_inh @ 5 uM: 98%
[10]
  EC50: 1180 nM
[4]
  EC50: 519 nM

## Oc1ccccc1CN1CCN(C(c2ccccc2)c2ccccc2)CC1 [MMV011795]
[6]
  percent_inh @ 5 uM: 97%
[8]
  EC50: 611 nM

## Oc1ccc2ccccc2c1CNc1nc2ccccc2[nH]1 [MMV011832]
[1]
  EC50: 652 nM

## Nc1ccc(-c2nc3cc(Oc4ccc(Oc5ccc6[nH]c(-c7ccc(N)cc7)nc6c5)cc4)ccc3[nH]2)cc1 [MMV011895]
[1]
  EC50: 288 nM

## COc1cccc(Nc2nc(NCCO)c3ccccc3n2)c1 [MMV011944]
[8]
  EC50: 854 nM

## Cc1cc(NC(=O)c2ccc(-c3ccccc3)cc2)no1 [MMV018984]
[6]
  percent_inh @ 5 uM: 95%
[8]
  EC50: 693 nM
[7]
  EC50: 1020 nM

## COCCNCC(O)Cn1c2ccc(Cl)cc2c2cc(Cl)ccc21 (stereo not drawn) [MMV019017]
[8]
  EC50: 1010 nM
[7]
  EC50: 52 nM

## COc1cccc(-c2nn(C)c3sc(C(=O)NCCN4CCN(c5ccccc5F)CC4)cc23)c1 [MMV019064]
[6]
  percent_inh @ 5 uM: 91%
[8]
  EC50: 1300 nM
[7]
  EC50: 955 nM

## COc1ccccc1CNC(=O)CCn1c(=O)[nH]c2ccsc2c1=O [MMV019066]
[2]
  percent_inh @ 5 uM: 67%
[3]
  EC50: 140 nM
[5]
  EC50: 1040 nM

## CCN1CCN(c2cc(C)c3cc(NC(=O)c4ccc(OC)c(OC)c4)ccc3n2)CC1 [MMV019074]
[6]
  percent_inh @ 5 uM: 99%
[7]
  EC50: 1030 nM

## Cc1cccc(Nc2nc(N)c3ccccc3n2)c1 [MMV019110]
2 uM, MMV Malaria Box data sheet, ref MMV data sheets
  percent_inh @ 2 uM: 97%
[3]
  EC50: 400 nM
[5]
  EC50: 574 nM

## CCN(Cc1ccccc1)C1CCN(Cc2cc(Br)ccc2O)CC1 [MMV019127]
[6]
  percent_inh @ 5 uM: 97%
[8]
  EC50: 625 nM
[7]
  EC50: 823 nM

## COc1cccc(Nc2nc(N)c3ccccc3n2)c1 [MMV019199]
[1]
  EC50: 934 nM

## O=C(Nc1ccc(-c2nc3cc4ccccc4cc3[nH]2)cc1)c1cccc(Br)c1 [MMV019241]
[9]
  percent_inh @ 5 uM: 93%
[10]
  EC50: 450 nM
[5]
  EC50: 363 nM

## COc1ccc(-n2ccnc2SCC(=O)Nc2cc(C)ccc2C)c(OC)c1 [MMV019258]
[2]
  percent_inh @ 5 uM: 95%
[3]
  EC50: 170 nM
[5]
  EC50: 205 nM

## Cc1sc2ncnc(Sc3nc4ccccc4[nH]3)c2c1C [MMV019266]
[9]
  percent_inh @ 5 uM: 100%
[10]
  EC50: 614 nM
[5]
  EC50: 255 nM

## Cn1c(=O)c2cc(C(=O)NCCCN3CCCCCC3)sc2c2ccccc21 [MMV019313]
[6]
  percent_inh @ 5 uM: 97%
[8]
  EC50: 669 nM
[7]
  EC50: 689 nM

## CCC1(C)CC(CCNCc2ccccc2O)(c2ccc(C)cc2)CCO1 (stereo not drawn) [MMV019406]
[2]
  percent_inh @ 5 uM: 97%
[3]
  EC50: 142 nM
[5]
  EC50: 38.8 nM

## c1ccc2c(NCCCCCCNc3c4c(nc5ccccc35)CCCC4)c3c(nc2c1)CCCC3 [MMV019555]
[9]
  percent_inh @ 5 uM: 100%
[10]
  EC50: 376 nM
[5]
  EC50: 196 nM

## COc1ccc(N2CCN(C(CNC(=O)C3CCCCC3)c3ccc4c(c3)OCO4)CC2)cc1 (stereo not drawn) [MMV019662]
[6]
  percent_inh @ 5 uM: 97%
[8]
  EC50: 1110 nM
[7]
  EC50: 566 nM

## O=C(Nc1ccc(N2CCN(Cc3ccccc3)CC2)cc1)c1cccs1 [MMV019670]
[6]
  percent_inh @ 5 uM: 59%
[8]
  EC50: 1080 nM
[7]
  EC50: 769 nM

## COc1ccc(C2NCCc3c2[nH]c2ccccc32)cc1CN1CCN(c2ccc(F)cc2)CC1 (stereo not drawn) [MMV019690]
[9]
  percent_inh @ 5 uM: 97%
[10]
  EC50: 934 nM
[5]
  EC50: 776 nM

## O=C(Nc1ccc(N2CCCCC2)c(Cl)c1)c1ccc(Br)o1 [MMV019700]
[6]
  percent_inh @ 5 uM: 96%
[8]
  EC50: 735 nM
[7]
  EC50: 549 nM

## Cc1[nH]c(-c2ccc(F)cc2)cc1C(=O)NC1CCN(Cc2ccccc2)CC1 [MMV019738]
[6]
  percent_inh @ 5 uM: 99%
[8]
  EC50: 771 nM
[7]
  EC50: 1130 nM

## Cc1ccc(C)c(Cn2c(N3CCC(C(=O)NCc4cccs4)CC3)nc3ccccc32)c1 [MMV019741]
[9]
  percent_inh @ 5 uM: 97%
[10]
  EC50: 1330 nM
[5]
  EC50: 938 nM

## Cc1ccc(Cl)cc1N1CCN(CCCNC(=O)C2CCN(c3nc4ccccc4[nH]3)CC2)CC1 [MMV019746]
[6]
  percent_inh @ 5 uM: 97%
[8]
  EC50: 1330 nM
[7]
  EC50: 895 nM

## COc1ccc(C(=O)Nc2ccc3nc(N4CCCCC4)cc(C)c3c2)cc1OC [MMV019758]
[6]
  percent_inh @ 5 uM: 76%
[7]
  EC50: 994 nM

## COc1cccc(C(=O)Nc2ccc(-c3nc4ccccc4[nH]3)cc2)c1 [MMV019762]
[9]
  percent_inh @ 5 uM: 83%
[5]
  EC50: 802 nM

## Cc1cc(C)c2nc(N3CCC(C(=O)NCCCN4CCC(N5CCCCC5)CC4)CC3)sc2c1 [MMV019780]
[6]
  percent_inh @ 5 uM: 98%
[8]
  EC50: 697 nM
[7]
  EC50: 838 nM

## Fc1ccc2[nH]c3c(NCCCN4CCOCC4)ncnc3c2c1 [MMV019871]
[2]
  percent_inh @ 5 uM: 98%
[3]
  EC50: 345 nM
[5]
  EC50: 714 nM

## O=C(NC1CCN(Cc2ccccc2)CC1)c1cc(C(=O)NC2CCN(Cc3ccccc3)CC2)cc(C(=O)NC2CCN(Cc3ccccc3)CC2)c1 [MMV019881]
[1]
  EC50: 1040 nM

## Clc1cc(Br)ccc1-c1ccc(CNCC2CCNCC2)o1 [MMV019918]
[6]
  percent_inh @ 5 uM: 96%
[8]
  EC50: 800 nM
[7]
  EC50: 1510 nM

## O=C(NCCCN1CCC(N2CCCCC2)CC1)C1=Cc2cc(Br)ccc2OC1 [MMV019995]
[9]
  percent_inh @ 5 uM: 99%
[10]
  EC50: 563 nM
[5]
  EC50: 853 nM

## Cc1cc(N(C)C)nc(Nc2ccc(NC(=O)Nc3ccccc3)cc2)n1 [MMV020243]
[1]
  EC50: 134 nM

## O=C(NC1CCN(Cc2ccccc2)CC1)c1cc(-c2ccncc2)nc2ccc(Cl)cc12 [MMV020275]
[6]
  percent_inh @ 5 uM: 92%
[8]
  EC50: 1020 nM
[7]
  EC50: 920 nM

## COc1ccc(-c2cn3c(C(=O)Nc4ccccc4Cl)c(-c4ccccc4)c4c3n2CCCC4)cc1 [MMV020403]
[1]
  EC50: 792 nM

## CCn1c(CN2CCN(Cc3ccccc3)CC2)nc2cc(NC(=O)c3cccs3)ccc21 [MMV020439]
[2]
  percent_inh @ 5 uM: 97%
[3]
  EC50: 512 nM
[5]
  EC50: 402 nM

## O=C(NC1CCN(Cc2ccccc2)CC1)c1cc(-c2cccnc2)nc2ccc(Cl)cc12 [MMV020490]
[9]
  percent_inh @ 5 uM: 91%
[10]
  EC50: 1010 nM
[5]
  EC50: 759 nM

## CC1CN(C(=O)c2sc3ccccc3c2Cl)CC(C)O1 (stereo not drawn) [MMV020492]
[2]
  percent_inh @ 5 uM: 95%
[3]
  EC50: 25.5 nM
[5]
  EC50: 87.9 nM

## CNCCCNc1ccnc2cc(Cl)ccc12 [MMV020500]
[2]
  percent_inh @ 5 uM: 98%
[3]
  EC50: 82.2 nM
[5]
  EC50: 62.4 nM

## CN(C)CCCNCc1ccc(-c2ccc(F)c(Cl)c2)o1 [MMV020505]
[9]
  percent_inh @ 5 uM: 96%
[10]
  EC50: 876 nM
[5]
  EC50: 802 nM

## CCN1CCN(Cc2ccc(NC(=O)c3cc4ccc5cccnc5c4[nH]3)cc2)CC1 [MMV020548]
[2]
  percent_inh @ 5 uM: 70%
[3]
  EC50: 361 nM
[5]
  EC50: 848 nM

## CC1CCN(Cc2ccc(NC(=O)c3cc4ccc5cccnc5c4[nH]3)cc2)CC1 [MMV020549]
[2]
  percent_inh @ 5 uM: 97%
[3]
  EC50: 274 nM
[5]
  EC50: 779 nM

## O=C(Nc1ccc(CN2CCOCC2)cc1)c1ccc(-c2cc(Cl)ccc2Cl)o1 [MMV020651]
[9]
  percent_inh @ 5 uM: 97%
[10]
  EC50: 1940 nM
[5]
  EC50: 613 nM

## CCC(O)c1ccc(Br)cc1NC(=O)c1cccc(Cl)c1 (stereo not drawn) [MMV020654]
[6]
  percent_inh @ 5 uM: 97%
[8]
  EC50: 640 nM
[7]
  EC50: 1020 nM

## CC(=O)Nc1nnc(SCc2c(C)cc(C(C)(C)C)cc2C)s1 [MMV020700]
[6]
  percent_inh @ 5 uM: 96%
[8]
  EC50: 871 nM
[7]
  EC50: 704 nM

## COc1cc(-c2nc(-c3ccccc3)c(-c3ccccc3)[nH]2)cc(OC)c1O [MMV020750]
[1]
  EC50: 774 nM

## Oc1ccccc1CNCC12CC3CC(CC(C3)C1)C2 [MMV020788]
[2]
  percent_inh @ 5 uM: 96%
[3]
  EC50: 22.6 nM
[5]
  EC50: 279 nM
